Measured values reported in patent US20190083398A1 (ZheJiang Chinese Medical University, priority 2016, published 2019).

Assay: Solubility (descriptive)
Format: physicochemical
Settings: 0.9% NaCl release medium
Text: The samples at each sampling point are filtered through a 0.45 μm microporous film and injected for analysis.

solubility in the release medium: very low
SMILES: CC(C)[C@@H](C)/C=C/[C@@H](C)[C@H]1CC[C@H]2C3=CC=C4C[C@@H](O)CC[C@]4(C)[C@H]3CC[C@]12C [ergosterol]
